Data published in patent publication US20240368225A1, “SELECTIVE SMALL MOLECULE AGONISTS AND PARTIAL AGONISTS OF TRK RECEPTORS” (THE TEXAS A&M UNIVERSITY SYSTEM, priority 2021, published 2024).
Read-outs that look alike come from different tables or passages of the source. *1 amine or outer side, *2 acyl side, *3 side chain or, on linkers, in order; H or OH if unused. Where a SMILES comes first, the peptide text is derived from it. Bridges are numbered along the chain shown (N, C = ends). X1 = COc1ccc(C2=C3C=C(S(=O)(=O)O)C([*:1])=[N+]3[B-](F)(F)n3c2cc(S(=O)(=O)O)c3[*:2])cc1

Key:
[1] = tested on: HeLa-TrkA cells; assay type: cell-based
Method: (§1) Cells were seeded at a density of 2000 cells per well. Cells were incubated in complete media for 24 hours. The media was aspirated, the cells washed twice with Dulbecco's Phosphate Buffered Saline, and the media was replaced with serum-free media to induce apoptosis unless otherwise halted. […] Cell survival was measured via alamarBlue assay after 48-72 hours to determine cell viability.
(§2) The most promising compounds from the screen were selected for each cell line. Cells were treated with a serial dilution of the compound in serum free media with or without suboptimal neurotrophin and incubated for 48-72 hours, after which an alamarBlue assay was done to determine cell viability. Cell viability was normalized to DMSO (0%) and optimal neurotrophin (100%), depending on cell type. EC50 was calculated in Graphpad Prism using the dose response “[agonist] vs response—Variable slope” function. Data is presented as the mean +/−standard deviation of an experiment with 3-6 replicates. Results for selected compounds with HeLa-TrkA cells can be found in FIG. 19A-19D. Results for selected compounds with HEK293-TrkB cells can be found in FIG. 20A-20C. Results for selected compounds with NIH3T3-TrkC cells can be found in FIG. 21A-21D.

[2] = tested on: NIH3T3-TrkC cells; assay type: cell-based; conditions: NIH3T3-TrkC cell survival
Method: as §1
Cells were treated with a serial dilution of the compound in serum free media with or without suboptimal neurotrophin and incubated for 48-72 hours, after which an alamarBlue assay was done to determine cell viability. Cell viability was normalized to DMSO (0%) and optimal neurotrophin (100%), depending on cell type. EC50 was calculated in Graphpad Prism using the dose response “[agonist] vs response—Variable slope” function. Data is presented as the mean +/−standard deviation of an experiment with 3-6 replicates.

[3] = target: HEK293-TrkB cells (Homo sapiens, UniProt Q16620); assay: HEK293-TrkB cell survival dose response (alamarBlue); assay type: cell-based; conditions: for EC50: EC50, HEK293-TrkB cell survival, serum-free media, 48-72 hours; for Partial or True Agonism: HEK293-TrkB cell survival
Chain of HEK293-TrkB cells (Q16620 32-822): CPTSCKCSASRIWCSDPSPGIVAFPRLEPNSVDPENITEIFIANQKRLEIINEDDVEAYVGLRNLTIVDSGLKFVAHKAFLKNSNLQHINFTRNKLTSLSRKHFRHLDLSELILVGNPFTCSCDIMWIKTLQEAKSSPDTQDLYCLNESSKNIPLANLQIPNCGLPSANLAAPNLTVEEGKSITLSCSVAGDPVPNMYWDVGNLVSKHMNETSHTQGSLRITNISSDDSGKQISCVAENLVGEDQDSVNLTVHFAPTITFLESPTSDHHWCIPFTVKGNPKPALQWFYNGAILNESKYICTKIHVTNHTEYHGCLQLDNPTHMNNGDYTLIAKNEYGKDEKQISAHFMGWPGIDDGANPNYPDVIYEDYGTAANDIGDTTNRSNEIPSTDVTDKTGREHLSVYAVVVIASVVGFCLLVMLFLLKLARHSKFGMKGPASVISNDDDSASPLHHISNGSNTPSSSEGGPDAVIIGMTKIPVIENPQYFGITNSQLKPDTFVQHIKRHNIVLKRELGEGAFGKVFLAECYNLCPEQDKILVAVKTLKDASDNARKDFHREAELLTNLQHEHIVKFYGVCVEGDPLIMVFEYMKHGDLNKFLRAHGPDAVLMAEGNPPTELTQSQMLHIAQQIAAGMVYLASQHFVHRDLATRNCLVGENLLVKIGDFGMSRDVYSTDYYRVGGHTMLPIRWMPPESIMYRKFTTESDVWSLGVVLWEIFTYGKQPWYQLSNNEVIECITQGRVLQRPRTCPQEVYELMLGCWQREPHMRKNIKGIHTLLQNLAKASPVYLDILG
Method: as §1, §2

[4] = target: T1, p75 (Homo sapiens, UniProt P08138); conditions: background statement; cited from earlier work
T1 sequence (P08138 29-427): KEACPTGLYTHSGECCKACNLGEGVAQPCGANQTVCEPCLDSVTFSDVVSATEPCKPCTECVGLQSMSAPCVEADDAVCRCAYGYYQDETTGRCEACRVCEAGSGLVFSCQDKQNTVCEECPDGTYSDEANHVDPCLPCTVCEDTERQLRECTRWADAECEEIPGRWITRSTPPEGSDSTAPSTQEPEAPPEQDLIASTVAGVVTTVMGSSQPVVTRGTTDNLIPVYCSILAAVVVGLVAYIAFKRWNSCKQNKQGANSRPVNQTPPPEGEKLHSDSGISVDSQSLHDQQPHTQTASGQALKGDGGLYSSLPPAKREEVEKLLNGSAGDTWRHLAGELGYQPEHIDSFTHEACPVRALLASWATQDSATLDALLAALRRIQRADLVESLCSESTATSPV

[5] = target: TrkA (Homo sapiens, UniProt P04629); conditions: background statement; cited from earlier work
Chain of TrkA (P04629 33-796, species assumed): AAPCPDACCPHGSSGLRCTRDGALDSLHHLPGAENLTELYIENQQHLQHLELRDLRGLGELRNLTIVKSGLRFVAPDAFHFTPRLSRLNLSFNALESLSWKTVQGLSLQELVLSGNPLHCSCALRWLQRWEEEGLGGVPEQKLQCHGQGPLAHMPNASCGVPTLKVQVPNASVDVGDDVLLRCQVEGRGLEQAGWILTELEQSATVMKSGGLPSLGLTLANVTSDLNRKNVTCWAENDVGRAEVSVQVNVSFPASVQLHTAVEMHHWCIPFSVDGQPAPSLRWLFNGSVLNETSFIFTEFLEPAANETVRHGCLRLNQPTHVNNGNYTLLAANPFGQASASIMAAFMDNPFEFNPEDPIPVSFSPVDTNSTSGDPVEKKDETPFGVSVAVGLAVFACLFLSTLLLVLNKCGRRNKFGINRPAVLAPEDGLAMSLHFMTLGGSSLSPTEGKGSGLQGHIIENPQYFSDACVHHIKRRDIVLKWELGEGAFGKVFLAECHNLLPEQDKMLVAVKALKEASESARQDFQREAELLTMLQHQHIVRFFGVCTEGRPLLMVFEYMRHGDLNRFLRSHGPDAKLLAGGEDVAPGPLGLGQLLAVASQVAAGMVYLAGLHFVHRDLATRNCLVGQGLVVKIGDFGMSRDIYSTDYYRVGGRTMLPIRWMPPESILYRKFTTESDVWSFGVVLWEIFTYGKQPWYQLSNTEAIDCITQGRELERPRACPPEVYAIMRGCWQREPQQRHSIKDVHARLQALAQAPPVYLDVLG

[6] = target: TrkC (Homo sapiens, UniProt Q16288); conditions: background statement; cited from earlier work
Chain of TrkC (Q16288 32-839, species assumed): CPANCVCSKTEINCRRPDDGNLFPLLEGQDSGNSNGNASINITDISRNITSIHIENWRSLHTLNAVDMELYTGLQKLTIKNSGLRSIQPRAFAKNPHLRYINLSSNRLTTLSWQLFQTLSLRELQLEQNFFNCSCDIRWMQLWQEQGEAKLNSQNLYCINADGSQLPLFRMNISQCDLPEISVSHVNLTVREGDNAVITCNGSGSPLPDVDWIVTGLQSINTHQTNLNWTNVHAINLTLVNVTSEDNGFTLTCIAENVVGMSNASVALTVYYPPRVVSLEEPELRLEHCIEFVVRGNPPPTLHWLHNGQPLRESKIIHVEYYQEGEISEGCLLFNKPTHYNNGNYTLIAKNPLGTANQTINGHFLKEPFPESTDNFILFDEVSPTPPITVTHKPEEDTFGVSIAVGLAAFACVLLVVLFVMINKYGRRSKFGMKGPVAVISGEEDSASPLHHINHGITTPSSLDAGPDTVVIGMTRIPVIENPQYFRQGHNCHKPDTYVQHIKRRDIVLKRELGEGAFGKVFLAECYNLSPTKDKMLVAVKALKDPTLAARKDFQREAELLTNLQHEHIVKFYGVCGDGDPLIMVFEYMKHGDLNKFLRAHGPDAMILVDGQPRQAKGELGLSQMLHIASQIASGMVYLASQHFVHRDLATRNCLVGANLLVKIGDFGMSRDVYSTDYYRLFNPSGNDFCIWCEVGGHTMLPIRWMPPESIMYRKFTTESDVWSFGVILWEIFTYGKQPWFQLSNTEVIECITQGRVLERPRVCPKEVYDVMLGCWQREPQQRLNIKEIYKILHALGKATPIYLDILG

[7] = tested on: Goblet cells; conditions: in vitro, background statement; cited from earlier work
[8] = HeLa-TrkA cell survival, without suboptimal neurotrophin
[9] = HeLa-TrkA cell survival, + 0.2 nM NGF
[10] = HeLa-TrkA cell survival, serum-free media, + 0.2 nM NGF (suboptimal), 48-72 hours, read-out: EC50
[11] = HeLa-TrkA cell survival, serum-free media, without suboptimal neurotrophin, 48-72 hours, read-out: EC50
[12] = without suboptimal neurotrophin

| Molecule | Partial or True Agonism [1, 8] | Partial or True Agonism ([2]; + 0.2 nM NT3) | EC50 ([3]; + 0.6 nM BDNF (suboptimal)) | EC50 [3, 12] | Partial or True Agonism ([3]; + 0.6 nM BDNF) | Partial or True Agonism [3, 12] | also measured |
| --- | --- | --- | --- | --- | --- | --- | --- |
| CC[C@H](C)[C@@H]1NC(=O)[C@H](CC(N)=O)NC(=O)C(C(C)C)n2cc(nn2)CC(C(=O)N[C@@H](CCCCNS(=O)(=O)c2cccc3c(N(C)C)cccc23)C(=O)O)NC(=O)[C@H](Cc2ccccc2)NC(=O)[C@H](C(C)C)NC(=O)[C@H](CO)NC(=O)[C@H](CC(N)=O)NC(=O)[C@H](CC(N)=O)NC1=O (stereo partly drawn) [1a(ii)ext] | true |  |  |  |  |  | EC50 [1]: 7070 nM |
| CC[C@H](C)[C@@H]1NC(=O)[C@@H]2C[C@@H](CN2)NC(=O)[C@H](CO)NC(=O)[C@H](CC(N)=O)NC(=O)[C@H](CC(N)=O)NC1=O [3a(ii)] | true |  |  |  |  |  | EC50 [1]: 10000 nM |
| CC[C@H](C)[C@@H]1NC(=O)[C@H](CC(=O)O)NC(=O)[C@@H]2C[C@@H](CN2)NC(=O)CNC(=O)[C@H](CCCNC(=N)N)NC1=O [3c(i)] |  | partial |  |  |  |  |  |
| COc1ccc(C2=C3C=C(S(=O)(=O)O)C4=[N+]3[B-](F)(F)n3c2cc(S(=O)(=O)O)c3SC[C@@H](C(N)=O)NC(=O)[C@H](CCC(N)=O)NC(=O)[C@H](CCCCN)NC(=O)[C@H](CCC(=O)O)NC(=O)[C@H](CC(=O)O)NC(=O)[C@@H](NC(C)=O)CS4)cc1 [5a(iii)m] (Ac-CDEKQC-NH2; linker 1-6 via X1) | true |  |  |  |  |  | Partial or True Agonism [1, 9]: partial; EC50 [1, 10]: 500 nM; EC50 [1, 11]: 2400 nM |
| COc1ccc(C2=C3C=C(S(=O)(=O)O)C4=[N+]3[B-](F)(F)n3c2cc(S(=O)(=O)O)c3SC[C@@H](C(N)=O)NC(=O)CNC(=O)[C@H](CO)NC(=O)[C@H](CCSC)NC(=O)[C@H](CC(=O)O)NC(=O)[C@@H](NC(C)=O)CS4)cc1 [5b(i)] (Ac-CDMSGC-NH2; linker 1-6 via X1) |  |  | 1800 nM | 400 nM | partial | true |  |
| COc1ccc(C2=C3C=C(S(=O)(=O)O)C4=[N+]3[B-](F)(F)n3c2cc(S(=O)(=O)O)c3SC[C@@H](C(N)=O)NC(=O)CNC(=O)[C@H](CCCCN)NC(=O)[C@H](CO)NC(=O)[C@H](C(C)C)NC(=O)[C@@H](NC(C)=O)CS4)cc1 [5b(ii)] (Ac-CVSKGC-NH2; linker 1-6 via X1) |  |  | 2800 nM | 900 nM | partial | true |  |
| CC[C@H](C)[C@@H]1NC(=O)[C@H](CC(=O)O)NC(=O)[C@@H](NC(C)=O)CSC2=[N+]3C(=C(c4ccc(OC)cc4)c4cc(S(=O)(=O)O)c(n4[B-]3(F)F)SC[C@@H](C(N)=O)NC(=O)CNC(=O)[C@H](CCCNC(=N)N)NC1=O)C=C2S(=O)(=O)O [5c(i)] (Ac-CDIRGC-NH2; linker 1-6 via X1) |  | partial | 2200 nM | 100 nM | partial | true | Partial or True Agonism [2, 12]: true |
| COc1ccc(C2=C3C=C(S(=O)(=O)O)C4=[N+]3[B-](F)(F)n3c2cc(S(=O)(=O)O)c3SC[C@@H](C(N)=O)NC(=O)[C@H](CO)NC(=O)[C@H](CC(N)=O)NC(=O)[C@H](CCC(N)=O)NC(=O)[C@H]([C@@H](C)O)NC(=O)[C@@H](NC(C)=O)CS4)cc1 [5c(ii)] (Ac-CTQNSC-NH2; linker 1-6 via X1) | true |  |  |  |  |  | Partial or True Agonism [1, 9]: partial; EC50 [1, 10]: 300 nM; EC50 [1, 11]: 4500 nM |
| COc1ccc(C2=C3C=C(S(=O)(=O)O)C4=[N+]3[B-](F)(F)n3c2cc(S(=O)(=O)O)c3SC[C@@H](C(N)=O)NC(=O)[C@H](CCCCN)NC(=O)[C@H](CC(N)=O)NC(=O)[C@H](CC(N)=O)NC(=O)[C@H](CCC(=O)O)NC(=O)[C@@H](NC(C)=O)CS4)cc1 [5c(iii)] (Ac-CENNKC-NH2; linker 1-6 via X1) |  | partial |  |  |  |  | Partial or True Agonism [2, 12]: true |
| Tavilermide [D3] |  |  |  |  |  |  | p75 activation [4]: does not activate p75; TrkA agonism [5]: partial TrkA agonist; TrkC binding [6]: does not bind TrkC; glycoconjugated mucin secretion [7]: increased glycoconjugated mucin secretion |
